# Assays:
# total AR in LNCaP cells = test: Western blotting of total AR, LNCaP; type: cell-based, human; settings: bergamottin 10μM, CSSM
# Method: (§1) Cells were plated at 25–30% confluence when maintained in complete media. When the cells required DHT tretment and media replacement to charcoal stripped serum media (CSSM) they were plated at 35–40% confluence. Bergamottin is dissolved in DMSO (vehicle control) and the amount of DMSO at each treatment group was kept constant. After the completion of the treatment cells were washed in phosphate buffer (PBS) containing 2mMEDTA and 2mM EGTA and lysed in RIPA buffer (50 mM TRIS, 150 mM NaCl, 1% NP40, 0.5% sodium deoxycholate, 0.1% SDS, 2mM EDTA, 2mM EGTA) supplemented with protease and phosphatase inhibitors for total protein isolation. Protein estimation was performed using micro BCA assay and equal protein amponts were loaded on SDS-PAGE gels for western analysis. GAPDH was used as an internal control for total protein. Infrared fluorescent-labeled secondary antibodies were used for detection using Odyssey CLx. The bands were quantified using Odyssey software, which calculates pixel density and automatically takes an area adjacent to each band for background corrections.
# [1] = tested on: AR nuclear localization in MDAPCa2b cells; test: Confocal microscopy of AR nuclear localization, MDAPCa2b; type: cell-based, human; settings: bergamottin 10μM, versus DMSO
# Method: Cells were seeded into 35 mm Glass bottom dish (Cellvis catalog# D35C4-20-1.5-N) in complete media; media was changed to CSSM prior to DHT treatment. The cells were fixed in 4% paraformaldehyde for 20 minutes and permeabilized using permeabilizing buffer (0.2% Tween 20 in PBS) for 5 minutes. Cells were blocked using 10% goat serum diluted in permeabilizing buffer with 1% BSA for 15 minutes. Primary antibodies were diluted at 1:100 in staining buffer (1% BSA in PBS) and incubated for 2 hours at room temperature. Cells were washed three times (5 minutes each) in PBS. Secondary antibodies, TRITC-conjugated Donkey Anti-rabbit (711-025-152) was from Jackson immuno research, West Grove, PA was diluted at 1:100 in staining buffer and incubated for 60 minutes at room temperature. Cells were washed three times (5 minutes) in PBS and stained with 1 μg/mL DAPI (4’, 6-diamidino-2-phenylindole) in PBS for 5 minutes at room temperature. The cells were stored in PBS at 4°C until imaging was completed.
# Cells were imaged using confocal laser scanning microscopy on a Nikon A1R using a galvano scanner and a 60× Apo-TIRF oil immersion objective. NIS Elements software form Nikon was used for recording the data.
# MDAPCa2b cells [2] = test: MTT growth assay, MDAPCa2b; type: cell-based; settings: Homo sapiens, MDA-PCa-2b
# Method: Growth of the cells was measured using a MTT assay. Cells were plated (2000 cells/ 96 well or 13,000 cells/ 24 well) for 48 hours then treated with bergamottin for 4 days (96 hours) and then incubated with MTT (3-(4,5-Dimethylthiazol- 2-yl)-2,5-Diphenyltetrazolium bromide) (4 mg/ml) for 2 h. at 37°C. DMSO (vehicle control for bergamottin) levels were compensated in each bergamottin treatment group. Cells were centrifuged at 2000 g for 10 min and the supernatant was discarded. The cell pellet was dissolved in 100/500 μl of DMSO depending on the well size. A plate reader was used to read the absorption at 540 nm. Experiments were performed in octuplet/quadruplet and repeated at least three times.
# PSA in MDAPCa2b cells = test: Western blotting of PSA, MDAPCa2b; type: cell-based, human; settings: 10μM, 96 hours
# Method: as §1
# [3] = tested on: cell cycle regulating proteins in MDAPCa2b cells; test: Western blot of cell cycle regulating proteins, MDAPCa2b; type: cell-based, human; settings: for CDK2, normalized fold change after GAPDH calibration / CDK4, normalized fold change after GAPDH calibration / CDK6, normalized fold change after GAPDH calibration / Cyclin A, normalized fold change after GAPDH calibration / Cyclin B1, normalized fold change after GAPDH calibration / Cyclin D1, normalized fold change after GAPDH calibration / Cyclin D3, normalized fold change after GAPDH calibration / Cyclin E, normalized fold change after GAPDH calibration / Myt 1, normalized fold change after GAPDH calibration / P-Wee1, normalized fold change after GAPDH calibration / P-cdc2, normalized fold change after GAPDH calibration / P-histone H3, normalized fold change after GAPDH calibration / p21, normalized fold change after GAPDH calibration / p27, normalized fold change after GAPDH calibration: 48 hrs., 0 μM = 100
# Method: as §1, with “corrections. […]” for “corrections.”
# LNCaP cells = test: Clonogenic assay, LNCaP; type: cell-based, human; settings: 5μM and 10μM, 3 weeks
# Method: (§2) For clonogenic assay, cells were plated in 6 well plates (10,000 cells) for 48 h and then treated with indicated amounts of bergamottin and vehicle control (DMSO). After 3 weeks, the colonies were fixed, stained (0.75% crystal violet, 50% ethanol and 1.75% formaldehyde) and counted. The assay was repeated three times.
# MDAPCa2b cells [4] = test: Clonogenic assay, MDAPCa2b; type: cell-based, human; settings: 5μM and 10μM, 3 weeks
# Method: as §2
# [5] = tested on: PARP cleavage in MDAPCa2b cells; test: Western blot of PARP cleavage, MDAPCa2b; type: cell-based, human; settings: 5 and 10 μM for 96 hrs. and 20 μM for 48 hrs.
# Method: as §1
# Cells were plated in complete media without antibiotics on poly D-lysine-coated plates (80,000 cells per 6 well). […]
structure (smiles),measurement,setting,value
CC(C)=CCC/C(C)=C/COc1c2ccoc2cc2oc(=O)ccc12 [bergamottin],downregulation of total AR levels,total AR in LNCaP cells,50%
same,active AR migration to the nucleus with DHT induction (confocal),[1],significantly reduced
same,inhibition at 10 µM,MDAPCa2b cells [2]; 10μM,60%
same,IC50,"MDAPCa2b cells [2]; treatment 96 hours (methods) / 120 hours (Fig 1 legend), read-out: bergamottin concentration giving 50% growth reduction",4 µM
same,PSA levels,PSA in MDAPCa2b cells,significantly reduced PSA levels
same,"CDK2, normalized fold change after GAPDH calibration",[3]; Bergamottin 20 μM,63
same,"CDK4, normalized fold change after GAPDH calibration",[3]; Bergamottin 20 μM,90
same,"CDK6, normalized fold change after GAPDH calibration",[3]; Bergamottin 20 μM,108
same,"Cyclin A, normalized fold change after GAPDH calibration",[3]; Bergamottin 20 μM,86
same,"Cyclin B1, normalized fold change after GAPDH calibration",[3]; Bergamottin 20 μM,52
same,"Cyclin D1, normalized fold change after GAPDH calibration",[3]; Bergamottin 20 μM,106
same,"Cyclin D3, normalized fold change after GAPDH calibration",[3]; Bergamottin 20 μM,55
same,"Cyclin E, normalized fold change after GAPDH calibration",[3]; Bergamottin 20 μM,120
same,"Myt 1, normalized fold change after GAPDH calibration",[3]; Bergamottin 20 μM,259
same,"P-Wee1, normalized fold change after GAPDH calibration",[3]; Bergamottin 20 μM,80
same,"P-cdc2, normalized fold change after GAPDH calibration",[3]; Bergamottin 20 μM,14
same,"P-histone H3, normalized fold change after GAPDH calibration",[3]; Bergamottin 20 μM,130
same,"p21, normalized fold change after GAPDH calibration",[3]; Bergamottin 20 μM,139
same,"p27, normalized fold change after GAPDH calibration",[3]; Bergamottin 20 μM,158
same,"CDK2, normalized fold change after GAPDH calibration",[3]; Bergamottin 30 μM,77
same,"CDK4, normalized fold change after GAPDH calibration",[3]; Bergamottin 30 μM,81
same,"CDK6, normalized fold change after GAPDH calibration",[3]; Bergamottin 30 μM,98
same,"Cyclin A, normalized fold change after GAPDH calibration",[3]; Bergamottin 30 μM,58
same,"Cyclin B1, normalized fold change after GAPDH calibration",[3]; Bergamottin 30 μM,42
same,"Cyclin D1, normalized fold change after GAPDH calibration",[3]; Bergamottin 30 μM,110
same,"Cyclin D3, normalized fold change after GAPDH calibration",[3]; Bergamottin 30 μM,49
same,"Cyclin E, normalized fold change after GAPDH calibration",[3]; Bergamottin 30 μM,87
same,"Myt 1, normalized fold change after GAPDH calibration",[3]; Bergamottin 30 μM,451
same,"P-Wee1, normalized fold change after GAPDH calibration",[3]; Bergamottin 30 μM,87
same,"P-cdc2, normalized fold change after GAPDH calibration",[3]; Bergamottin 30 μM,15
same,"P-histone H3, normalized fold change after GAPDH calibration",[3]; Bergamottin 30 μM,152
same,"p21, normalized fold change after GAPDH calibration",[3]; Bergamottin 30 μM,126
same,"p27, normalized fold change after GAPDH calibration",[3]; Bergamottin 30 μM,143
same,CDK4 level (western blot),"[3]; low dose 5 and 10 μM, 96 hrs.",did not observe any significant change
same,CDK6 level (western blot),"[3]; low dose 5 and 10 μM, 96 hrs.",did not observe any significant change
same,cdc-2 phosphorylation (western blot),"[3]; low dose 5 and 10 μM, 96 hrs.",Decreased cdc-2 phosphorylation
same,cyclin B1 level (western blot),"[3]; low dose 5 and 10 μM, 96 hrs.",lower
same,cyclin D3 level (western blot),"[3]; low dose 5 and 10 μM, 96 hrs.",lower
same,number of colonies,LNCaP cells,significantly reduced the number of colonies
same,number of colonies,MDAPCa2b cells [4],significantly reduced the number of colonies
same,PARP cleavage,[5],showed apoptosis (cleaved PARP)

# — article PMC8476002, “Bergamottin a CYP3A inhibitor found in grapefruit juice inhibits prostate cancer cell growth by downregulating androgen receptor signaling and promoting G0/G1 cell cycle block and apoptosis” (PLoS ONE, 2021)
